pEC50, pIC50: −log10 of the molar value. Read-outs that look alike come from different tables or passages of the source.
Legend:
[1] = test system: SARS-CoV-2 Everett strain; assay: protection of Calu-3 cells from SARS-CoV-2 Everett strain-induced cytotoxicity (CellTiter Glo 2.0); details: read-out: IC50, protection of Calu-3 cells from SARS2-induced cytotoxicity
[2] = test system: SARS-CoV-2 Toronto strain; assay: cytopathic effect screening assay, SARS-CoV-2 Toronto strain in Vero E6 cells; assay type: cell-based; details: Severe acute respiratory syndrome coronavirus 2, Vero C1008; Vero E6 cells mixed with virus; CBD 20 nM to 10 μM; cell viability after 72 hours; FIG. 1; read-out: EC50, inhibition of cell death of virally-infected cells
SARS-CoV-2 = details: reported by Nguyen et al., March 2021; cited from earlier work
Vero E6 cells = details: Vero E6 cultures not exposed to virus; 20 nM to 10 μM; 72 hours
[3] = Severe acute respiratory syndrome coronavirus 2, Calu-3, 96 h

Row | SMILES | pIC50 [1, 3] | pEC50 [2] | effect on SARS-CoV-2 replication (SARS-CoV-2) | cytotoxicity over the concentration range tested (Vero E6 cells) | pIC50 ([1]; Calu-3, 96 hours, MOI 0.5 to 2.0, three-fold dilutions from 10 μM)
1 | C=C(C)[C@@H]1CCC(C)=C[C@H]1c1c(O)cc(CCC)cc1O [cannabidivarin, (−)-Cannabidivarin] | 7.37 |  |  |  | 
2 | C=C(C)[C@@H]1CCC(C)=C[C@H]1c1c(O)cc(CCCCC)cc1O [CBD, (−)-Cannabidiol] | 6.92 | 5.07 | inhibits SARS-CoV-2 replication | No cytotoxicity | 
3 | CCCCCc1cc(O)c(C/C=C(\C)CCC=C(C)C)c(O)c1 [cannabigerol, Cannabigerol] |  |  |  |  | 6.92

Reference: patent US20230270763A1, “METHOD OF TREATING C[…] CANNABINOIDS AND DERIVATIVES” (PASCAL BIOSCIENCES INC., priority 2020, published 2023)
